Test results: ChEMBL document CHEMBL3217737, “Discovery of a highly selective FLT3 kinase inhibitor from phenotypic cell viability profiling” (Medchemcomm, 2013)
The source made the active and inactive calls. No cut-off for these calls is given here.

Key:
[1] = Cytotoxicity against rat L6 cells assessed as cell viability at 1 uM after 24 hrs by WST1 assay; format: cell-based; conditions: read-out: Activity
[2] = molecular target: Mast/stem cell growth factor receptor Kit (Homo sapiens) (UniProt P10721); test: Inhibition of c-KIT (unknown origin) at 10 uM assessed as residual enzyme activity
[3] = molecular target: Tyrosine-protein kinase ABL1 (Homo sapiens) (UniProt P00519); test: Inhibition of ABL1 (unknown origin) at 10 uM assessed as residual enzyme activity
[4] = molecular target: Mitogen-activated protein kinase 8 (Homo sapiens) (UniProt P45983); test: Inhibition of JNK1 (unknown origin) at 10 uM assessed as residual enzyme activity
[5] = molecular target: Mitogen-activated protein kinase 11 (Homo sapiens) (UniProt Q15759); test: Inhibition of P38beta (unknown origin) at 10 uM assessed as residual enzyme activity
[6] = molecular target: Protein kinase C alpha type (Homo sapiens) (UniProt P17252); test: Inhibition of PKCalpha (unknown origin) at 10 uM assessed as residual enzyme activity
[7] = system: RAF proto-oncogene serine/threonine-protein kinase; test: Inhibition of Raf1 (unknown origin) at 10 uM assessed as residual enzyme activity; conditions: Homo sapiens
[8] = molecular target: Leukocyte tyrosine kinase receptor (Homo sapiens) (UniProt P29376); test: Inhibition of LTK (unknown origin) at 10 uM assessed as residual enzyme activity
HL-60 [9] = test: Inhibition of ERK phosphorylation in human HL60 cells at 0.1 to 10 uM after 12 hrs by Western blot method; format: cell-based
[10] = molecular target: RAC-alpha serine/threonine-protein kinase (Homo sapiens) (UniProt P31749); test: Inhibition of AKT1 (unknown origin) at 10 uM assessed as residual enzyme activity
MV4-11 [11] = test: Induction of apoptosis in human MV4-11 cells assessed as PARP cleavage at 0.1 to 10 uM after 12 hrs by Western blot method; format: functional, cell-based
MV4-11 [12] = test: Cytotoxicity against human MV4-11 cells assessed as cell viability at 1 uM after 24 hrs by WST1 assay; format: functional; conditions: MV4-11, 24 h, read-out: Activity
[13] = molecular target: Receptor-type tyrosine-protein kinase FLT3 (Homo sapiens) (UniProt P36888); test: Inhibition of FLT3 phosphorylation in human MV4-11 cells after 4 hrs by Western blot method; format: cell-based
[14] = molecular target: Tyrosine-protein kinase JAK1 (Homo sapiens) (UniProt P23458); test: Inhibition of JAK1 (unknown origin) at 10 uM assessed as residual enzyme activity
[15] = molecular target: Cyclin-dependent kinase 5/CDK5 activator 1 (Homo sapiens) (UniProt Q00535+Q15078); test: Inhibition of CDK5/p35 (unknown origin) at 10 uM assessed as residual enzyme activity; format: protein-complex assay
HL-60 [16] = test: Cytotoxicity against human HL60 cells assessed as cell growth inhibition after 24 hrs by WST1 assay; format: functional, cell-based
[17] = molecular target: Receptor-type tyrosine-protein kinase FLT3 (Homo sapiens) (UniProt P36888); test: Inhibition of FLT3 (unknown origin) at 10 uM assessed as residual enzyme activity
[18] = molecular target: Proto-oncogene tyrosine-protein kinase receptor Ret (Homo sapiens) (UniProt P07949); test: Inhibition of RET (unknown origin) at 10 uM assessed as residual enzyme activity
MV4-11 [19] = test: Cytotoxicity against human MV4-11 cells assessed as cell growth inhibition after 24 hrs by WST1 assay; format: functional, cell-based
[20] = molecular target: Ribosomal protein S6 kinase beta-1 (Homo sapiens) (UniProt P23443); test: Inhibition of p70S6K (unknown origin) at 10 uM assessed as residual enzyme activity

Receptor-type tyrosine-protein kinase FLT3 (Homo sapiens), sequence (P36888 whole entry): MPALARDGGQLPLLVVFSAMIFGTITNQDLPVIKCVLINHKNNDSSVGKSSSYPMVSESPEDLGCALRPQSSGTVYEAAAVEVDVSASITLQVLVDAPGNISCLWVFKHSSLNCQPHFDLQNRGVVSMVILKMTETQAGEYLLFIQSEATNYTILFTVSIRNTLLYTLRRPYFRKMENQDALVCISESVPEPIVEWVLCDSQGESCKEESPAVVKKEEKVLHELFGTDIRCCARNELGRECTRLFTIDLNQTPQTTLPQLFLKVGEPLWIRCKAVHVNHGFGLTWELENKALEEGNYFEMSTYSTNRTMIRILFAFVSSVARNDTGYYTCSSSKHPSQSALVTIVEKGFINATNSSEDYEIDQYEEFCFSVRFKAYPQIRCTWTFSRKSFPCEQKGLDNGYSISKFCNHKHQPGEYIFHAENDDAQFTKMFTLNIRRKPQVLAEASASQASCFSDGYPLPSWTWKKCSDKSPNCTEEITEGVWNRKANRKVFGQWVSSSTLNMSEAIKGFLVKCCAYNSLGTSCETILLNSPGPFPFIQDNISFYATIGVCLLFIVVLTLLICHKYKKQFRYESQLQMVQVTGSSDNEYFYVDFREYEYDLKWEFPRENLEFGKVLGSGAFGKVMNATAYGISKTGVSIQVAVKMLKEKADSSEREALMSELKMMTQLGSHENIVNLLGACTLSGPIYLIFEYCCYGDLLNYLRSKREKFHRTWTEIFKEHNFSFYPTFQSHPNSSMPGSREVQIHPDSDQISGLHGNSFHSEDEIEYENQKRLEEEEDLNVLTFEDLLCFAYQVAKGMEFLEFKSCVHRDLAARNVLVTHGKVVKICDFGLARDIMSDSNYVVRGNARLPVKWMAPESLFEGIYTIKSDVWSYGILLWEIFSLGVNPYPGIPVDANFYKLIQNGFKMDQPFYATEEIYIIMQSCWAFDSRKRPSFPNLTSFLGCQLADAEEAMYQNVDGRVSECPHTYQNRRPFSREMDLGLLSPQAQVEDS
Proto-oncogene tyrosine-protein kinase receptor Ret (Homo sapiens), sequence (P07949 whole entry): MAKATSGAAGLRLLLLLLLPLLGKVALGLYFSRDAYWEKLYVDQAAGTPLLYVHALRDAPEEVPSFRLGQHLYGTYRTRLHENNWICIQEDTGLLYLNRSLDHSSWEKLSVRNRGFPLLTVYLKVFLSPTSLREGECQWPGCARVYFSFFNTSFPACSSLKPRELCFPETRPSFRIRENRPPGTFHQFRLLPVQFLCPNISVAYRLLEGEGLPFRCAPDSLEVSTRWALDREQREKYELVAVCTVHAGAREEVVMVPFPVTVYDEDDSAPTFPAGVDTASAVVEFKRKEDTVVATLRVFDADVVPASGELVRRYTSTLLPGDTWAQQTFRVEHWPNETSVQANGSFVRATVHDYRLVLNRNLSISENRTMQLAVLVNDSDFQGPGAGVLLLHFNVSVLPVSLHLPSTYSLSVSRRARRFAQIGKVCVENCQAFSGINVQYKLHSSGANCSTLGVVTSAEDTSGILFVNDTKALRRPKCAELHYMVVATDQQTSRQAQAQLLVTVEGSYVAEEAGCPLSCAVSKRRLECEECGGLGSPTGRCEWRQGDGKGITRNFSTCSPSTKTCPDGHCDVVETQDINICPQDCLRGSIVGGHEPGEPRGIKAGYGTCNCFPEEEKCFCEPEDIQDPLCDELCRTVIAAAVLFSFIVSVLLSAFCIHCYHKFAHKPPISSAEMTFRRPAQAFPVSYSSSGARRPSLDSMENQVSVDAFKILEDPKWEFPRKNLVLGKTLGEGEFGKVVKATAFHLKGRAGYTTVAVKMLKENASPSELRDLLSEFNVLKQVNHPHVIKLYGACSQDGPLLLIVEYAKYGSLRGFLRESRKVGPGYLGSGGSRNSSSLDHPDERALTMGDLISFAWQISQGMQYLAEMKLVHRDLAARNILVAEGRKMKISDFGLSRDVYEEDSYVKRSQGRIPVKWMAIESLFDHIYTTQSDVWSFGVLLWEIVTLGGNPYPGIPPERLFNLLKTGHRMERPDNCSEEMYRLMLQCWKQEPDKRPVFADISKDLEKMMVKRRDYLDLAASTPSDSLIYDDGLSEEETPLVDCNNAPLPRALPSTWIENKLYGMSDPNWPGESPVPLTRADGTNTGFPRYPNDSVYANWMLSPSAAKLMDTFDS
Leukocyte tyrosine kinase receptor (Homo sapiens), sequence (P29376 whole entry): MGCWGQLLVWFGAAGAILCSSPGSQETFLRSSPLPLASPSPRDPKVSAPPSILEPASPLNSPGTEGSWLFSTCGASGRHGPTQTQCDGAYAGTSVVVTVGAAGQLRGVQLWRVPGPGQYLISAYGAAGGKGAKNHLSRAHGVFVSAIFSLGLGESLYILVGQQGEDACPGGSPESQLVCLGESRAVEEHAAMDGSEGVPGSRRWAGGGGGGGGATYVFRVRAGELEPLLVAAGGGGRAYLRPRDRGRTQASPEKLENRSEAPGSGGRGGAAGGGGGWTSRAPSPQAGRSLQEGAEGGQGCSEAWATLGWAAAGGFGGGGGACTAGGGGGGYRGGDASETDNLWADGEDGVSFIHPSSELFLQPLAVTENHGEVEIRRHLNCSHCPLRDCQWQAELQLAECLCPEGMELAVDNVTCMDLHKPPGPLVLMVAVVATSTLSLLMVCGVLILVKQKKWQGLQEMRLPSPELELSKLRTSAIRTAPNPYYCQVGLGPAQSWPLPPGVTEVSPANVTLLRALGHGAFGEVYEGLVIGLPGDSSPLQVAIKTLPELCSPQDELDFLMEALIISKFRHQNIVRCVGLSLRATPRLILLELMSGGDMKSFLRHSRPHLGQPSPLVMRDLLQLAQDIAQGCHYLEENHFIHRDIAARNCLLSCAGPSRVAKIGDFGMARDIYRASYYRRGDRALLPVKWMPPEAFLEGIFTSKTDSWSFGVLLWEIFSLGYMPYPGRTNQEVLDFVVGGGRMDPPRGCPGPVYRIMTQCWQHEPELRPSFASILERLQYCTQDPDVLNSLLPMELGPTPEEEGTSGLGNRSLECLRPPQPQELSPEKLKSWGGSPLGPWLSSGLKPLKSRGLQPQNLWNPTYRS
RAC-alpha serine/threonine-protein kinase (Homo sapiens), sequence (P31749 whole entry): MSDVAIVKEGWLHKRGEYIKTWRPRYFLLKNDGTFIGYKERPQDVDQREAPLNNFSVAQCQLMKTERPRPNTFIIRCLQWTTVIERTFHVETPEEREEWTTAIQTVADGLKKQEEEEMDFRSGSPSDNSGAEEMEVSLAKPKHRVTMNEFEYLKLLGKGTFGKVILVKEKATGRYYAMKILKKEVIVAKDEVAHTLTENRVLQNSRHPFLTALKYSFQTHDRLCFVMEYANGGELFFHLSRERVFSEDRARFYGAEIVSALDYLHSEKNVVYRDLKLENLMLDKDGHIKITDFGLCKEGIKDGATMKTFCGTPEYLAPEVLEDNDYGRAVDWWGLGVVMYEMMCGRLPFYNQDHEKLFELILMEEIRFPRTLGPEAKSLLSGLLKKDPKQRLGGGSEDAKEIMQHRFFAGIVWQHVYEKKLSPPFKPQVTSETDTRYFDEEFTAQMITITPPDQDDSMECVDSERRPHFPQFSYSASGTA
Mast/stem cell growth factor receptor Kit (Homo sapiens), sequence (P10721 whole entry): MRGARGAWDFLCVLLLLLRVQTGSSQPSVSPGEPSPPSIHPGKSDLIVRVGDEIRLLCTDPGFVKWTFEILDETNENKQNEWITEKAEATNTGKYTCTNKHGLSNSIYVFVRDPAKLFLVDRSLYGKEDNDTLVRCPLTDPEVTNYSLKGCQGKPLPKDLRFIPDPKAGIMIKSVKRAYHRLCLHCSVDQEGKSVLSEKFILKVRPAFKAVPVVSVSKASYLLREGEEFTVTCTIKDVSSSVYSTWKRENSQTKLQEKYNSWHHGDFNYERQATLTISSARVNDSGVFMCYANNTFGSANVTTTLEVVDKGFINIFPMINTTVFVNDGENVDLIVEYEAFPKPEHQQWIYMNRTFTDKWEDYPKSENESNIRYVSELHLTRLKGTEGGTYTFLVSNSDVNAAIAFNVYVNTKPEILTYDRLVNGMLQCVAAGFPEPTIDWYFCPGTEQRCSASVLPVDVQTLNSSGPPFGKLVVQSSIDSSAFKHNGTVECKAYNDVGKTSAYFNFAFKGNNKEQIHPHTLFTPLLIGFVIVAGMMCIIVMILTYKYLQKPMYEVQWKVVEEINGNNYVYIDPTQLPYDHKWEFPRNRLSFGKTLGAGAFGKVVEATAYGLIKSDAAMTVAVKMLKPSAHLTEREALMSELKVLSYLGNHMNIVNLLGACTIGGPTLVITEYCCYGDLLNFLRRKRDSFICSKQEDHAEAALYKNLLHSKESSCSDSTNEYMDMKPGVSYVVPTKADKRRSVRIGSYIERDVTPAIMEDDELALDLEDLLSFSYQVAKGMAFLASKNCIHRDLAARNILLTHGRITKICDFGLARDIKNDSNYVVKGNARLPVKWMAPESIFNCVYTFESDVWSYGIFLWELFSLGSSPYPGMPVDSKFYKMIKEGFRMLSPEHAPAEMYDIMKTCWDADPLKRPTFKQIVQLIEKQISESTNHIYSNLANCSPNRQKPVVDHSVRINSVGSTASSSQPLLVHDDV

SMILES: COc1ccc(-c2n[nH]c3ncc(-c4ccc(Cl)cc4N)cc23)cc1
- viability at 24 h, 1 µM [1]: 107%
- Activity [2]: 99.2%
- Activity [3]: 88.9%
- Activity [4]: 101%
- Activity [5]: 97.8%
- Activity [6]: 84.5%
- Activity [7]: 94.9%
- Activity [8]: 92.9%
- inhibition (HL-60 [9]): inactive
- Activity [10]: 93.6%
- Activity (MV4-11 [11]): Active
- viability at 1 µM (MV4-11 [12]): 30%
- inhibition [13]: Active
- Activity [14]: 103%
- Activity [15]: 87.2%
- growth inhibition (GI) (HL-60 [16]): inactive
- Activity [17]: 9.5%
- Activity [18]: 83.3%
- growth inhibition (GI) (MV4-11 [19]): Dose-dependent effect
- IC50 (MV4-11 [19]; MV4-11, 24 h): 592 nM
- Activity [20]: 94.1%
